Source: US20100144712A1 (priority 2007, published 2010)
In brackets after ≈: the same amount, converted by molar mass.

Experiments:
Format in all cases: cell-based
[1] = test system: Candida albican ATCC 90873; assay: In vitro antifungal activity (MIC80), Candida albican ATCC 90873; conditions: Candida, ATCC90873; Table 2, ATCC 90873; read-out: Minimal inhibitory concentration (MIC80)
Experimental: (§1) In vitro antifungal activities of the inventive antifungal compounds were evaluated using test strains including Candida albican (ATCC 90873, 204276, 62342, 64124, 64550, 96901, MYA-573, MYA-574, MYA-575, MYA-576, MYA-1003) and Aspergillus fumigatus (ATCC 16424). Test samples and positive control samples were prepared by dissolving the inventive compounds and comparative compounds, i.e., amphotericin B, fluconazole and itraconazole, in DMSO, respectively, and each successively diluted with medium to obtain test and positive control solutions having test compound concentrations of 0.125 μg/ml to a maximum concentration not generating turbidity. Minimal inhibitory concentration (MIC80) of each compound was determined as the lowest concentration of the test compounds required to reduce growth by 80% relative to a control strain not treated.
(§2) 1) Test strain: Candida albican ATCC 90873, 204276, 62342, 64124, 64550, 96901, MYA-573, MYA-574, MYA-575, MYA-576, MYA-1003, and Aspergillus fumigatus ATCC 16424 were commercially obtained from The American Type Culture Collection (ATCC) and subcultured in CHEMON Co. Ltd. (amphotericin B was commercially purchased from Sigma, and fluconazole and itraconazole were prepared according to methods described in British Patent No. 2,099,818; and U.S. Pat. No. 4,267,179, respectively).
(§3) 2) Medium and culture condition: Candida albican was cultured in Sabourad Dextrose Agar, YM Agar or Potato Dextrose Agar according to ATCC information at a temperature of 37° C., 35° C., 30° C. or 25° C. Aspergillus fumigatus was cultured in Malt Extract Agar or Potato Dextrose Agar at a temperature ranging from 24 to 27° C.
(§4) 3) Preparation of test samples: the inventive compounds and comparative compounds were each diluted with DMSO to obtain 1 to 2 ml of a test sample in a concentration of 100-folds of the determining maximum concentration (256 μg/ml).
(§5) The test samples were each successively diluted with RPMI 1640 to obtain test solutions having concentrations of […] in a 12×75 mm sterilized disposable culture tube. The final concentration of DMSO was adjusted to […] (v/v).
(§6) 5) Preparation of strain solution and inoculation
(§7) Candida albican strains were each subcultured in Sabourad Dextrose Agar, YM Agar or Potato Dextrose Agar medium at 35° C. for 2˜3 days. In the case of yeasts, a single colony was taken from prominent colonies and suspended in 0.85% sterile physiological saline solution and the turbidity of the suspension was adjusted to 80˜82% at 530 nm, and then diluted 50-fold with RPMI 1640 medium to 1.0×10^3˜5.0×10^3 CFU/ml. The turbidity of fungi was adjusted to 80˜82% and the suspension was diluted 50-fold to […]. Aspergillus fumigatus strains were subcultured in Malt Extract Agar for 7˜10 days, and a single colony was taken from prominent colonies and suspended in 0.85% sterile physiological saline solution and the suspension was adjusted to 0.108 at 530 nm, and then diluted 1000-fold with RPMI 1640 medium to 0.4×10^2˜5×10^4 CFU/ml. The turbidity of fungi was adjusted to 80˜82% and the suspension was diluted 50-fold to 0.4102˜0.5104 CFU/ml.
(§8) The strain solutions thus obtained were each seeded into a sterilized 96-well microplate, 0.1 ml of each test solution were added thereto, and […] of alamarblue was treated to each well (Biosource, #DAL1100). This procedure was repeated 2 times.
(§9) Minimal inhibitory concentration (MIC80) of each compound was determined as the lowest concentration of the test compounds required to reduce growth by 80% relative to a control strain not treated.

[2] = test system: Candida albican ATCC MYA-573; assay: In vitro antifungal activity (MIC80), Candida albican ATCC MYA-573; conditions: Candida; Table 2, MYA 573; read-out: Minimal inhibitory concentration (MIC80)
Experimental: as §1, §2, §3, §4, §5, §6, §7, §8, §9

[3] = test system: Candida albican ATCC MYA-1003; assay: In vitro antifungal activity (MIC80), Candida albican ATCC MYA-1003; conditions: Candida; Table 2, MYA 1003; read-out: Minimal inhibitory concentration (MIC80)
Experimental: as §1, §2, §3, §4, §5, §6, §7, §8, §9

[4] = test system: Aspergillus fumigatus (ATCC 16424); assay: In vitro antifungal activity (MIC80), Aspergillus fumigatus ATCC 16424; conditions: Aspergillus fumigatus, ATCC16424, Table 2, ATCC 16424; read-out: Minimal inhibitory concentration (MIC80)
Experimental: as §1, §2, §3, §4, §5, §6, §7, §8, §9
MIC80 of each of the compounds of which antifungal activities can be confirmed by Table 2 was determined using other test strains, i.e., Aspergillus fumigatus ATCC 16424 and MYA-1163, Aspergillus terreus ATCC 28301, Aspergillus flavus ATCC MYA-1004, and Aspergillus niger ATCC 9142.

[5] = test system: Candida albican ATCC 96901; assay: In vitro antifungal activity (MIC80), Candida albican ATCC 96901; conditions: Candida, ATCC96901; Table 2, ATCC 96901; read-out: Minimal inhibitory concentration (MIC80)
Experimental: as §1, §2, §3, §4, §5, §6, §7, §8, §9

[6] = test system: Candida albican ATCC MYA-576; assay: In vitro antifungal activity (MIC80), Candida albican ATCC MYA-576; conditions: Candida; Table 2, MYA 576; read-out: Minimal inhibitory concentration (MIC80)
Experimental: as §1, §2, §3, §4, §5, §6, §7, §8, §9

[7] = test system: Candida albican ATCC 62342; assay: In vitro antifungal activity (MIC80), Candida albican ATCC 62342; conditions: Candida, ATCC62342; Table 2, 62342; read-out: Minimal inhibitory concentration (MIC80)
Experimental: as §1, §2, §3, §4, §5, §6, §7, §8, §9

[8] = test system: Candida albican ATCC 64550; assay: In vitro antifungal activity (MIC80), Candida albican ATCC 64550; conditions: Candida, ATCC64550; Table 2, 64550; read-out: Minimal inhibitory concentration (MIC80)
Experimental: as §1, §2, §3, §4, §5, §6, §7, §8, §9

[9] = test system: Candida albican ATCC 64124; assay: In vitro antifungal activity (MIC80), Candida albican ATCC 64124; conditions: Candida, ATCC64124; Table 2, 64124; read-out: Minimal inhibitory concentration (MIC80)
Experimental: as §1, §2, §3, §4, §5, §6, §7, §8, §9

[10] = test system: Candida albican ATCC MYA-575; assay: In vitro antifungal activity (MIC80), Candida albican ATCC MYA-575; conditions: Candida; Table 2, MYA 575; read-out: Minimal inhibitory concentration (MIC80)
Experimental: as §1, §2, §3, §4, §5, §6, §7, §8, §9

[11] = test system: Candida albican ATCC MYA-574; assay: In vitro antifungal activity (MIC80), Candida albican ATCC MYA-574; conditions: Candida; Table 2, MYA 574; read-out: Minimal inhibitory concentration (MIC80)
Experimental: as §1, §2, §3, §4, §5, §6, §7, §8, §9

| MIC80 [1] [µg/mL] | MIC80 [2] [µg/mL] | MIC80 [3] [µg/mL] | MIC80 [4] [µg/mL] | MIC80 [5] [µg/mL] | MIC80 [6] [µg/mL] | MIC80 [7] [µg/mL] | MIC80 [8] [µg/mL] | MIC80 [9] [µg/mL] | MIC80 [10] [µg/mL] | MIC80 [11] [µg/mL] | Compound |
| --- | --- | --- | --- | --- | --- | --- | --- | --- | --- | --- | --- |
| 0.25 (≈ 0.463 µM) | > 128 | > 128 | 1 (≈ 1.85 µM) | > 128 |  |  |  |  |  |  | Cc1ccc(-c2nsc(C(=O)N3CCN([C@H](C)[C@](O)(Cn4cncn4)c4ccc(F)cc4F)CC3)n2)cc1 [Example 53, (4-((2R,3R)-3-(2,4-difluorophenyl)-3-hydroxy-4-(1H-1,2,4-triazol-1-yl)butan-2-yl)piperazin-1-yl)(3-p-tolyl-1,2,4-thiadiazol-5-yl)methanone] |
| 0.25 (≈ 0.446 µM) | 4 (≈ 7.14 µM) | > 128 | 1 (≈ 1.79 µM) | > 128 |  |  |  |  |  |  | C[C@@H](N1CCN(C(=O)c2nc(-c3ccc(Cl)cc3)ns2)CC1)[C@](O)(Cn1cncn1)c1ccc(F)cc1F [Example 51, (3-(4-chlorophenyl)-1,2,4-thiadiazol-5-yl)(4-((2R,3R)-3-(2,4-difluorophenyl)-3-hydroxy-4-(1H-1,2,4-triazol-1-yl)butan-2-yl)piperazin-1-yl)methanone] |
| 0.125 (≈ 0.239 µM) | 0.25 (≈ 0.478 µM) | > 128 | 0.25 (≈ 0.478 µM) | > 128 |  |  |  |  |  |  | Cc1ccc(-c2noc(C(=O)N3CCN([C@H](C)[C@](O)(Cn4cncn4)c4ccc(F)cc4F)CC3)n2)cc1 [Example 47, (4-((2R,3R)-3-(2,4-difluorophenyl)-3-hydroxy-4-(1H-1,2,4-triazol-1-yl)butan-2-yl)piperazin-1-yl)(3-p-tolyl-1,2,4-oxadiazol-5-yl)methanone] |
| 0.125 (≈ 0.245 µM) | 1 (≈ 1.96 µM) | > 128 | 0.125 (≈ 0.245 µM) | > 128 |  |  |  |  |  |  | C[C@@H](N1CCN(C(=O)c2nc(-c3ccccc3)no2)CC1)[C@](O)(Cn1cncn1)c1ccc(F)cc1F [Example 45, (4-((2R,3R)-3-(2,4-difluorophenyl)-3-hydroxy-4-(1H-1,2,4-triazol-1-yl)butan-2-yl)piperazin-1-yl)(3-phenyl-1,2,4-oxadiazol-5-yl)methanone] |
| 0.125 (≈ 0.232 µM) | 1 (≈ 1.85 µM) | > 128 | 0.5 (≈ 0.927 µM) | > 128 |  |  |  |  |  |  | COc1ccc(-c2noc(C(=O)N3CCN([C@H](C)[C@](O)(Cn4cncn4)c4ccc(F)cc4F)CC3)n2)cc1 [Example 49, (4-((2R,3R)-3-(2,4-difluorophenyl)-3-hydroxy-4-(1H-1,2,4-triazol-1-yl)butan-2-yl)piperazin-1-yl)(3-(4-methoxyphenyl)-1,2,4-oxadiazol-5-yl)methanone] |
| 2 (≈ 3.5 µM) | 8 (≈ 14 µM) | 128 (≈ 224 µM) |  | 16 (≈ 28 µM) | 4 (≈ 7.01 µM) | 4 (≈ 7.01 µM) | 16 (≈ 28 µM) | 128 (≈ 224 µM) | 2 (≈ 3.5 µM) | 8 (≈ 14 µM) | CC(N1CCN(c2ccc(N(C)CCCN3CCOCC3)nc2)CC1)C(O)(Cn1cncn1)c1ccc(F)cc1F (centres unmarked) [Example 36] |
| 0.125 (≈ 0.261 µM) | 0.5 (≈ 1.04 µM) | > 128 |  | 16 (≈ 33.4 µM) | 0.125 (≈ 0.261 µM) | 0.25 (≈ 0.522 µM) | 2 (≈ 4.18 µM) | 8 (≈ 16.7 µM) | 0.125 (≈ 0.261 µM) | 2 (≈ 4.18 µM) | C[C@@H](N1CCCN(c2ccc3ccccc3n2)CC1)[C@](O)(Cn1cncn1)c1ccc(F)cc1F [Example 40, (2R,3R)-2-(2,4-difluorophenyl)-3-(4-(quinolin-2-yl)-1,4-diazepan-1-yl)-1-(1H-1,2,4-triazol-1-yl)butan-2-ol] |
| 0.25 (≈ 0.514 µM) | > 128 | > 128 |  | > 128 | 0.5 (≈ 1.03 µM) | > 128 | > 128 | > 128 | 0.5 (≈ 1.03 µM) | > 128 | CCCCOc1cccc(N2CCN([C@H](C)[C@](O)(Cn3cncn3)c3ccc(F)cc3F)CC2)n1 [Example 23, (2R,3R)-3-(4-(6-(butyloxy)pyridin-2-yl)piperazin-1-yl)-2-(2,4-difluorophenyl)-1-(1H-1,2,4-triazol-1-yl)butan-2-ol] |
| 0.125 (≈ 0.258 µM) | 1 (≈ 2.06 µM) | > 128 |  | 32 (≈ 66 µM) | 0.125 (≈ 0.258 µM) | 1 (≈ 2.06 µM) | 1 (≈ 2.06 µM) | 32 (≈ 66 µM) | 0.125 (≈ 0.258 µM) | 4 (≈ 8.26 µM) | C[C@@H](N1CCN(c2ccc(OCC3CC3)nc2)CC1)[C@](O)(Cn1cncn1)c1ccc(F)cc1F [Example 30, (2R,3R)-3-(4-(6-(cyclopropylmethoxy)pyridin-3-yl)piperazin-1-yl)-2-(2,4-difluorophenyl)-1-(1H-1,2,4-triazol-1-yl)butan-2-ol] |
| 0.125 (≈ 0.265 µM) | 2 (≈ 4.23 µM) | > 128 |  | 64 (≈ 135 µM) | 0.125 (≈ 0.265 µM) | 2 (≈ 4.23 µM) | 4 (≈ 8.46 µM) | 64 (≈ 135 µM) | 0.125 (≈ 0.265 µM) | 4 (≈ 8.46 µM) | CC(C)Oc1ccc(N2CCN([C@H](C)[C@](O)(Cn3cncn3)c3ccc(F)cc3F)CC2)cn1 [Example 33, (2R,3R)-2-(2,4-difluorophenyl)-3-(4-(6-(isopropyloxy)pyridin-3-yl)piperazin-1-yl)-1-(1H-1,2,4-triazol-1-yl)butan-2-ol] |
| 0.125 (≈ 0.24 µM) | 1 (≈ 1.92 µM) | > 128 |  | > 128 | 0.125 (≈ 0.24 µM) | 0.5 (≈ 0.96 µM) | 1 (≈ 1.92 µM) | 4 (≈ 7.68 µM) | 0.25 (≈ 0.48 µM) | 1 (≈ 1.92 µM) | C[C@@H](N1CCN(c2ccc(OCc3ccccc3)nc2)CC1)[C@](O)(Cn1cncn1)c1ccc(F)cc1F [Example 29, (2R,3R)-3-(4-(6-(benzyloxy)pyridin-3-yl)piperazin-1-yl)-2-(2,4-difluorophenyl)-1-(1H-1,2,4-triazol-1-yl)butan-2-ol] |
| 0.125 (≈ 0.276 µM) | 1 (≈ 2.21 µM) | 16 (≈ 35.3 µM) |  | 32 (≈ 70.6 µM) | 0.125 (≈ 0.276 µM) | 4 (≈ 8.82 µM) | 2 (≈ 4.41 µM) | 128 (≈ 282 µM) | 0.125 (≈ 0.276 µM) | 2 (≈ 4.41 µM) | CC(N1CCCN(c2ccc(C#N)nc2)CC1)C(O)(Cn1cncn1)c1ccc(F)cc1F (centres unmarked) [Example 39] |
